# Results published in patent US20240180883A1, “TREATMENT OF MIGRAINE” (Allergan Pharmaceuticals International Limited, priority 2020, published 2024).
# Entries after “also recorded” stand apart in the source; their conditions may differ. Read-outs that look alike come from different tables or passages of the source.
# Experiments:
# [1] = molecular target: T1, CYP3A4 (Homo sapiens, UniProt P08684); assay: Expected interaction with weak or moderate CYP3A4 inducers
# T1 construct: mainly eliminated by CYP3A4 metabolism; from tissue; host or cells: in vivo, the patient's own enzyme (the gut wall is mentioned)
# [2] = system: adults with migraine; assay: Consistency of treatment, ACHIEVE trials and long-term extension trial; format: in vivo, human
# Method: Therapeutic gain (TG) was calculated for the ACHIEVE trial and separately for the first 3 attacks of moderate/severe pain intensity treated in the long term extension trial, using placebo data from ACHIEVE. The TG ratio (TGR) was the TG from the LTE divided by the TG in the ACHIEVE trial multiplied by 100. Following consultation with regulatory agencies, a consistency threshold for the TGR of 50% or greater was used for this analysis.
# [3] = Long-term safety, open-label extension study; format: in vivo, human
# Method: Long-term safety was assessed in 813 patients, dosing intermittently for up to 1 year in an open-label extension study. […] Of these 813 patients, 421 patients were exposed to 50 mg or 100 mg for at least 6 months, and 364 patients were exposed to these doses for at least one year, all of whom treated at least two migraine attacks per month, on average. […] The most common adverse reaction resulting in discontinuation in the long-term safety study was nausea.
# [4] = Study B: drug interaction PK with rifampin; format: in vivo, human; details: for half-life: read-out: Apparent terminal t1/2, mean (SD) (converted)
# Excerpt: Study B (rifampin) had two treatment periods. […] All treatments were received under fasted conditions.
# Healthy adults aged 19-50 years for Study A and 18-45 years for Study B were eligible to participate. […] For study B, participants had to have a BMI between 18.0 and 30 kg/m^2. Exclusion criteria for both studies included hypersensitivity to any study drug; exposure to hepatitis B virus, hepatitis C virus, or HIV; or use of any drug or substance known to affect CYP enzymes or P-gp.
# [5] = Study A: safety; format: in vivo, human
# Method: Study A (verapamil and ketoconazole) comprised 3 treatment periods. […] Ubrogepant was administered under fasted conditions.
# [6] = system: BCRP and/or P-gp; assay: Predicted interaction with BCRP and/or P-gp inhibitors
# [7] = system: adult patients with migraine; assay: Phase 3 Study 1 (NCT02828020) migraine efficacy; format: in vivo, human
# Excerpt: In two randomized, double-blind, placebo-controlled, Ph. […] Of the ubrogepant-treated patients in these two studies, approximately 89% were female, 82% were white, 15% were Black, and 17% were of Hispanic or Latino ethnicity. The mean age at study entry was 41 years (range of 18-75 years).
# In all studies, patients were instructed to treat a migraine with moderate to severe headache pain intensity. […] Up to 23% of patients were taking preventive medications for migraine at baseline. None of these patients were on concomitant preventive medication that act on the CGRP pathway.
# The primary efficacy analyses were conducted in patients who treated a migraine with moderate to severe pain. […] Pain freedom was defined as a reduction of moderate or severe headache pain to no pain, and MBS freedom was defined as the absence of the self-identified MBS (i.e., photophobia, phonophobia, or nausea). Among patients who selected an MBS, the most commonly selected was photophobia (56%), followed by phonophobia (24%) and nausea (19%).
# Table 14 also presents the results of the analyses of the percentage of patients achieving pain relief at 2 hours (defined as a reduction in migraine pain from moderate or severe to mild or none) post-dose and the percentage of patients achieving sustained pain freedom between 2 to 24 hours post-dose.
# [8] = coadministered with rifampin 600 mg vs alone
# [9] = ubrogepant 100 mg + rifampin 600 mg
# [10] = ubrogepant 100 mg alone, listed as Ubrogepant
# T1 sequence (P08684 whole entry): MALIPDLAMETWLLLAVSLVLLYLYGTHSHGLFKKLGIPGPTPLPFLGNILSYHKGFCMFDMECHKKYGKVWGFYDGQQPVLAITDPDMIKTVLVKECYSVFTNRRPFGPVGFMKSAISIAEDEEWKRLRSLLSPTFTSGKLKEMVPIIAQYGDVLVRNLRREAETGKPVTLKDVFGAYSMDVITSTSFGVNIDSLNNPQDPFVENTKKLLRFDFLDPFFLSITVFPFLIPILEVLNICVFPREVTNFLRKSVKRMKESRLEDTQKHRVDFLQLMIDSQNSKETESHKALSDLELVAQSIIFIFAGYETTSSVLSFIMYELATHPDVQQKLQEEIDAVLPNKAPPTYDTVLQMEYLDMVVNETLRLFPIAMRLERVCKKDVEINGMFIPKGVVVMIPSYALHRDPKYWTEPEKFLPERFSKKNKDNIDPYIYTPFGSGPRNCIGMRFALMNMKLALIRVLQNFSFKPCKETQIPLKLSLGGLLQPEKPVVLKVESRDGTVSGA
compound,measurement,setting,value
"C[C@@H]1[C@H](c2ccccc2)C[C@H](NC(=O)c2cnc3c(c2)C[C@@]2(C3)C(=O)Nc3ncccc32)C(=O)N1CC(F)(F)F [ubrogepant, (3′S)-N-((3S,5S,6R)-6-methyl-2-oxo-5-phenyl-1-(2,2,2-trifluoroethyl)piperidin-3-yl)-2′-oxo-1′,2′,5,7-etrahydrospiro[cyclopenta[b]pyridine-6,3′-pyrrolo[2,3-b]pyridine]-3-carboxamide]",reduction of ubrogepant exposure,[1]; moderate CYP3A4 inducers,50-80%
same,reduction of ubrogepant exposure,[1]; weak CYP3A4 inducers,20-50%
same,rate of 2-hour pain relief,[2]; ACHIEVE ubrogepant 100 mg treated attacks,61.4%
same,rate of 2 hour pain freedom,[2]; ACHIEVE ubrogepant 100 mg-treated attacks,21.2%
same,rate of 2 hour pain freedom,"[2]; LTE trial, 100 mg, mean across first 3 attacks",21.6%
same,rate of 2-hour pain relief,"[2]; LTE trial, 100 mg, mean across first three attacks",68.0%
same,patients withdrawn because of an adverse reaction,"[3]; intermittent dosing for up to 1 year, 50 mg or 100 mg",2.5%
same,most common adverse reaction resulting in discontinuation,[3]; long-term safety study,nausea
same,reduction in ubrogepant AUC0-t,[4]; [8],78%
same,reduction in ubrogepant Cmax,[4]; [8],69%
same,AUC(0-t),"[4]; human, plasma, oral, 100 mg, ubrogepant 100 mg alone, read-out: AUC0-t, mean (SD)",1880 ng·h/mL
same,AUC(0-inf),"[4]; human, plasma, oral, 100 mg, ubrogepant 100 mg alone, read-out: AUC0-∞, mean (SD)",1910 ng·h/mL
same,half-life,"[4]; human, plasma, oral, 100 mg, ubrogepant 100 mg alone",4.4 h
same,Cmax,"[4]; human, plasma, oral, 100 mg, ubrogepant 100 mg alone, read-out: Cmax, mean (SD)",416 ng/mL
same,AUC(0-t),"[4]; human, plasma, oral, 100 mg, ubrogepant 100 mg alone, read-out: Geometric LSM AUC0-t, Reference",1720 ng·h/mL
same,AUC(0-inf),"[4]; human, plasma, oral, 100 mg, ubrogepant 100 mg alone, read-out: Geometric LSM AUC0-∞, Reference",1750 ng·h/mL
same,Cmax,"[4]; human, plasma, oral, 100 mg, ubrogepant 100 mg alone, read-out: Geometric LSM Cmax, Reference",375 ng/mL
same,Tmax,"[4]; human, plasma, oral, 100 mg, read-out: Tmax, median (range)",2 h
same,Vd/F,"[4]; human, plasma, oral, 100 mg, read-out: Vz/F",390 ± 174 L
same,AUC(0-t),"[4]; human, plasma, oral, rifampin 600 mg in combination with ubrogepant 100 mg, read-out: Geometric LSM AUC0-t, Test",378 ng·h/mL
same,AUC(0-inf),"[4]; human, plasma, oral, rifampin 600 mg in combination with ubrogepant 100 mg, read-out: Geometric LSM AUC0-∞, Test",379 ng·h/mL
same,Cmax,"[4]; human, plasma, oral, rifampin 600 mg in combination with ubrogepant 100 mg, read-out: Geometric LSM Cmax, Test",118 ng/mL
same,AUC(0-t),"[4]; human, plasma, oral, ubrogepant 100 mg + rifampin 600 mg, read-out: AUC0-t, mean (SD)",396 ng·h/mL
same,AUC(0-inf),"[4]; human, plasma, oral, ubrogepant 100 mg + rifampin 600 mg, read-out: AUC0-∞, mean (SD)",397 ng·h/mL
same,half-life,"[4]; human, plasma, oral, ubrogepant 100 mg + rifampin 600 mg",3 h
same,Cmax,"[4]; human, plasma, oral, ubrogepant 100 mg + rifampin 600 mg, read-out: Cmax, mean (SD)",136 ng/mL
same,"Apparent terminal t1/2, mean (SD)",[4]; [9],3.04 (0.64) h
same,CL/F,[4]; [9],282.87 ± 103.74 L/h
same,CL/F,[4]; ubrogepant 100 mg alone,62.77 ± 28.33 L/h
same,"Tmax, median (range)",[4]; ubrogepant 100 mg alone,2 h
same,"Apparent terminal t1/2, mean (SD)",[4]; [10],4.36 (0.75) h
same,"Tmax, median (range)",[4]; [10],2.00 (1.00-4.00) h
same,exposure of ubrogepant on co-administration,"[4]; with rifampin, a strong CYP3A4 inducer",significant reduction in ubrogepant exposure
same,elevations in serum transaminases or bilirubin,[5]; Study A,no participants experienced elevations in serum transaminases or bilirubin greater than or equal to 2-fold ULN
same,total TEAEs reported,"[5]; Study A, all treatment periods",39 TEAEs
same,safety and tolerability,"[5]; single oral dose coadministered with multiple doses of verapamil or ketoconazole, healthy adults",safe and generally well tolerated; also recorded: safe and generally well-tolerated
same,highest predicted potential increase in exposure,[6],≤ 2 fold
same,"Most Bothersome Symptom Free at 2 hours, % Responders","[7]; Study 1, 50 mg",38.6%
same,"Most Bothersome Symptom Free at 2 hours, Difference from Placebo","[7]; Study 1, 50 mg",10.8%
same,"Pain Relief at 2 hours, % Responders","[7]; Study 1, 50 mg",60.7%
same,"Pain free at 2 hours, % Responders","[7]; Study 1, 50 mg",19.2%
same,"Pain free at 2 hours, Difference from Placebo","[7]; Study 1, 50 mg",7.4%
same,"Sustained pain freedom at 2-24 hours, % Responders","[7]; Study 1, 50 mg",12.7%
same,"Most Bothersome Symptom Free at 2 hours, % Responders","[7]; Study 1, 100 mg",37.7%
same,"Most Bothersome Symptom Free at 2 hours, Difference from Placebo","[7]; Study 1, 100 mg",9.9%
same,"Pain Relief at 2 hours, % Responders","[7]; Study 1, 100 mg",61.4%
same,"Pain free at 2 hours, % Responders","[7]; Study 1, 100 mg",21.2%
same,"Pain free at 2 hours, Difference from Placebo","[7]; Study 1, 100 mg",9.4%
same,"Sustained pain freedom at 2-24 hours, % Responders","[7]; Study 1, 100 mg",15.4%
same,incidence of photophobia and phonophobia compared to placebo,[7]; both doses (50 and 100 mg),reduced
